Paper doi:10.1101/2024.08.25.609621 (bioRxiv, 2024)
Where two headings read alike, the source gives them in different places.

Molecular target: SARS-CoV-2 NSP3 macrodomain (Mac1), P43 crystal form (Severe acute respiratory syndrome coronavirus 2, UniProt P0DTD1)
Format: binding
Conditions: for 1-BDC: PanDDA background density correction; for Total number of conformations: ligand conformations modeled in Mac1 crystal structure; for X-ray crystallography: Binding site: site where the ligand is bound in the X-ray crystal structure
[1] = crystal soak 10 mM, P43 crystals
[2] = crystal structure with Mac1 determined (TRUE)
[3] = occupancy estimate from PanDDA 1-BDC
[4] = site of ligand in Mac1 crystal structure
[5] = crystal soak, soak concentration 10 mM
[6] = crystal soak, soak concentration 10 mM, TRUE = ligand hit
[7] = X-ray crystal structure determined (TRUE)
[8] = site of ligand in X-ray crystal structure
[9] = TRUE = crystal structure with ligand determined
[10] = crystal soak concentration 10 mM, P43 crystals
[11] = crystal soak concentration 10 mM
[12] = crystal soak concentration 20 mM, P43 crystals
[13] = site of Mac1 where ligand bound in crystal structure
[14] = crystal soak 10 mM, TFA/DMSO background map
[15] = crystal soak concentration 3 mM, P43 crystals
[16] = crystal soak concentration 3 mM

Row | SMILES | 1-BDC | Pandda run, overall: Hit [1] | Pandda run, overall: Modeled [1] | PanDDA run, DMSO background map: 1-BDC (crystal soak 10 mM) | PanDDA run, DMSO background map: Hit (crystal soak 10 mM) | Total number of conformations | 2*(1-BDC) (%) [3] | X-ray crystallography: Binding site | X-ray crystal structure [7] | Binding site [8] | other results
1 | OC1CCCN(c2ncnc3[nH]ccc23)C1 (stereo not drawn) [AVI-3646] | 0.22 | TRUE | TRUE | 0.22 | TRUE | 1 | 44% |  |  |  | X-ray crystal structure [2]: TRUE; Binding site [4]: Adenosine
2 | CC1(C)CCC(CO)N(c2ncnc3[nH]ccc23)C1 (stereo not drawn) [AVI-3726] | 0.17 |  |  |  |  | 3 | 34% | Adenosine |  |  | Pandda run, overall: Modeled [5]: TRUE; Pandda run, overall: Hit [6]: TRUE; PanDDA run, DMSO background map: 1-BDC (soak concentration 10 mM): 0.17; PanDDA run, DMSO background map: Hit (soak concentration 10 mM): TRUE
3 | OCC(Cc1cccs1)Nc1ncnc2[nH]ccc12 (stereo not drawn) [AVI-3711] | 0.21 |  |  |  |  | 1 | 42% |  | TRUE | Adenosine | Pandda run, overall: Modeled [5]: TRUE; Pandda run, overall: Hit [6]: TRUE; PanDDA run, DMSO background map: 1-BDC (soak concentration 10 mM): 0.21; PanDDA run, DMSO background map: Hit (soak concentration 10 mM): TRUE
4 | Cc1ccc(CC(CO)Nc2ncnc3[nH]ccc23)cc1C (stereo not drawn) [AVI-3684] | 0.15 | TRUE | TRUE | 0.15 | TRUE | 2 | 30% |  | TRUE | Adenosine | 
5 | O=C(O)C(F)(F)F.O[C@H]1CCC[C@@H]1Nc1ncnc2[nH]ccc12 [AVI-3639] | 0.11 | TRUE | TRUE | 0.11 | TRUE | 1 | 22% |  | TRUE | Adenosine | 
6 | OCC(CC1OCCO1)Nc1ncnc2[nH]ccc12 (stereo not drawn) [AVI-3658] | 0.2 | TRUE | TRUE | 0.2 | TRUE | 1 | 40% |  | TRUE | Adenosine | 
7 | CC(O)C(C)Nc1ncnc2[nH]ccc12 (stereo not drawn) [AVI-5158] | 0.17 |  |  |  |  | 2 |  |  | TRUE | Adenosine | Occupancy difference (refined_occupancy - 2*(1-BDC)): 0; Refined ligand occupancy (%): 34%; PanDDA run, DMSO background map: 1-BDC (event 1): 0.17; 2*(1-BDC) (%) (occupancy estimate from PanDDA BDC): 34%
8 | OC(c1ccccc1)C1CCCN1c1ncnc2[nH]ccc12 (stereo not drawn) [AVI-3652] | 0.22 | TRUE | TRUE | 0.22 | TRUE | 1 | 44% | Adenosine |  |  | 
9 | OCC1COCCN1c1ncnc2[nH]ccc12 (stereo not drawn) [AVI-3717] | 0.14 |  |  |  |  | 2 | 28% | Adenosine |  |  | Pandda run, overall: Modeled [5]: TRUE; Pandda run, overall: Hit [6]: TRUE; PanDDA run, DMSO background map: 1-BDC (soak concentration 10 mM): 0.14; PanDDA run, DMSO background map: Hit (soak concentration 10 mM): TRUE
10 | OCC(CC1CCC1)Nc1ncnc2[nH]ccc12 (stereo not drawn) [AVI-3641] | 0.18 | TRUE | TRUE | 0.18 | TRUE | 1 | 36% |  | TRUE | Adenosine | 
11 | OC[C@@H]1C[C@H](F)CN1c1ncnc2[nH]ccc12 [AVI-609] | 0.17 |  |  |  |  | 1 | 34% | Adenosine |  |  | Pandda run, overall: Modeled [5]: TRUE; Pandda run, overall: Hit [6]: TRUE; PanDDA run, DMSO background map: 1-BDC (soak concentration 10 mM): 0.17; PanDDA run, DMSO background map: Hit (soak concentration 10 mM): TRUE
12 | O=C(O)C(F)(F)F.OCC12CC(CN1c1ncnc3[nH]ccc13)C2 [AVI-3681] | 0.22 | TRUE | TRUE | 0.22 | TRUE | 1 | 44% | Adenosine |  |  | Pandda run, overall: Modeling comment [1]: Distal site, weak density, not modeled
13 | C#CCC(CO)Nc1ncnc2[nH]ccc12 (stereo not drawn) [AVI-3644] | 0.18 | TRUE | TRUE | 0.18 | TRUE | 1 | 36% |  | TRUE | Adenosine | 
14 | OCC1CCCN1c1ncnc2[nH]ccc12 (stereo not drawn) [AVI-3685] | 0.25 | TRUE | TRUE | 0.25 | TRUE | 1 | 50% | Adenosine |  |  | 
15 | CCC1(O)CCN(c2ncnc3[nH]ccc23)C1 (stereo not drawn) [AVI-612] | 0.17 |  |  |  |  | 1 | 34% |  |  |  | Pandda run, overall: Modeled (crystal soak, soak concentration 5 mM): TRUE; Pandda run, overall: Hit (crystal soak, soak concentration 5 mM, TRUE = ligand hit): TRUE; X-ray crystal structure [2]: TRUE; Binding site [4]: Adenosine; PanDDA run, DMSO background map: 1-BDC (soak concentration 5 mM): 0.17; PanDDA run, DMSO background map: Hit (soak concentration 5 mM): TRUE
16 | CC1CCN(C(=O)c2ccc3c(c2)nc(CO)n3C)CC1C(=O)O (stereo not drawn) [AVI-348] | 0.25 |  |  |  |  | 1 | 50% |  |  |  | X-ray crystal structure [9]: TRUE; PanDDA run, DMSO background map: 1-BDC (crystal soak concentration 10 mM, event 1): 0.25; Pandda run, overall: Hit [10]: TRUE; Pandda run, overall: Modeled [10]: TRUE; PanDDA run, DMSO background map: Hit [11]: TRUE; PanDDA run, DMSO background map: Modeled [11]: TRUE; PanDDA run, DMSO background map: Hit (crystal soak concentration 20 mM): TRUE; PanDDA run, DMSO background map: 1-BDC (crystal soak concentration 20 mM, event 1): 0.34; Pandda run, overall: Hit [12]: TRUE; Pandda run, overall: Modeling comment [12]: Duplicate, not modeled; Binding site [13]: Adenosine
17 | O=C(O)C(F)(F)F.OC[C@@H](CCc1ccccc1)Nc1ncnc2[nH]ccc12 [AVI-3654] |  | TRUE |  | 0.14 | TRUE |  |  |  |  |  | Pandda run, overall: Modeling comment [1]: Weak density for phenyl, not modeled; PanDDA run, TFA/DMSO background map: 1-BDC [14]: 0.07; PanDDA run, TFA/DMSO background map: Hit [14]: TRUE
18 | CC1CCN(c2ncnc3[nH]ccc23)C1CO (stereo not drawn) [AVI-3655] | 0.21 | TRUE | TRUE | 0.21 | TRUE | 1 | 42% | Adenosine |  |  | 
19 | CC(C)(C)CC(CO)Nc1ncnc2[nH]ccc12 (stereo not drawn) [AVI-3648] | 0.13 | TRUE | TRUE | 0.13 | TRUE | 1 | 26% |  | TRUE | Adenosine | 
20 | CN1CCN(c2ncnc3[nH]ccc23)C(CO)C1 (stereo not drawn) [AVI-3721] | 0.06 |  |  |  |  | 2 | 12% | Adenosine |  |  | Pandda run, overall: Modeled [5]: TRUE; Pandda run, overall: Hit [6]: TRUE; PanDDA run, DMSO background map: 1-BDC (soak concentration 10 mM): 0.06; PanDDA run, DMSO background map: Hit (soak concentration 10 mM): TRUE
21 | CC(C)(C)C(O)CC(CO)Nc1ncnc2[nH]ccc12.O=C(O)C(F)(F)F (stereo not drawn) [AVI-3714] |  |  |  |  |  |  |  |  |  |  | Pandda run, overall: Modeling comment [5]: TFA only
22 | CCC(Nc1ncnc2[nH]ccc12)C(C)(C)O (stereo not drawn) [AVI-3667] | 0.14 | TRUE | TRUE | 0.14 | TRUE | 1 | 28% |  | TRUE | Adenosine | 
23 | CCC(CO)Nc1ncnc2[nH]ccc12 (stereo not drawn) [AVI-3643] | 0.16 | TRUE | TRUE | 0.16 | TRUE | 1 | 32% |  | TRUE | Adenosine | 
24 | Cc1c(C)n(Cc2ccccc2)c2ncnc(N)c12 [AVI-321] | 0.08 |  |  |  |  | 1 | 16% |  |  |  | PanDDA run, DMSO background map: 1-BDC (event 1): 0.15; X-ray crystal structure [9]: TRUE; Pandda run, overall: Hit [15]: TRUE; Pandda run, overall: Modeled [15]: TRUE; PanDDA run, DMSO background map: Hit [16]: TRUE; PanDDA run, DMSO background map: Modeled [16]: TRUE; PanDDA run, DMSO background map: 1-BDC (crystal soak concentration 3 mM, event 1): 0.08; Binding site [13]: Adenosine
